Values joined by “and” are separate entries in the source; they are usually repeats but may differ in a detail not shown here. Identical values can stand only once.
Columns and labels:
macular degeneration = assay: Clinical case: sublingual progesterone in a patient with macular degeneration; assay type: in vivo, human
Protocol: An adult human presented with macular degeneration. They had visual acuity of 20/200 in each eye. After the use of sublingual progesterone, one application, their vision improved to 20/100 and 20/40. […] They were evaluated for hormone allergy therapy by assessing their anti-hormone antibodies and found to have elevated levels of IgE, IgG, and IgM antibodies to progesterone.
The subject then received progesterone 1:10 sublingual drops which they continue to use.

[1] = test system: serum anti-estrogen IgG antibodies; assay: Competition ELISA: absorption of serum IgG anti-estrogen with specific and non-specific antigens; assay type: binding, human; details: for Absorption of serum IgG antibodies, in words: antigen added to the liquid phase; for Inhibition of anti-estrogen binding to estrogen (IgG), range over samples: antigen in liquid phase, Table 2; for Percent inhibition after absorption (IgG) / Serum anti-estrogen IgG level after absorption: antigen 250 μg/mL; for Serum anti-estrogen IgG level after absorption: optical density at 405 nm
Protocol: (§1) Enzyme-linked immunosorbent assay (ELISA) was used for testing antibodies against estrogen and progesterone in the sera of patients with premenstrual asthma and with control subjects. […] Plates were incubated overnight at 4° C. and then washed three times with […] of Tris-buffered saline (TBS) containing 0.05% Tween 20, pH 7.4. […] Plates were incubated for 2 h (for IgG and IgM) and overnight (for IgE), and then washed four times with PBS-Tween 20. Alkaline-phosphatase-conjugated goat anti-human IgG, IgM or IgE F(ab′)2 fragment at optimal dilution of 1:700 (IgG); 1:500 (IgM) and 1:250 (IgE) was added to corresponding wells. The plates were then incubated for an additional 2 h at room temperature. After washing five times with TBS-Tween buffer, the enzyme reaction was started by adding 100 μl of para-nitrophenylphosphate in 0.1 mL of diethanolamine buffer (1 mg/ml) containing 1 mM MgCl2 and sodium azide, pH 9.8. The reaction was stopped 45 minutes later with 50 μl of 1 N NaOH. The optical density was read at 405 nm (OD405) with a microtiter reader.
(§2) 100 μl of serum diluent buffer was added to all wells. […] After a 60-minute incubation, 100 μl serum anti-estrogen or anti-progesterone was added to all wells. […] Results were calculated as a percentage of inhibition in antigen-antibody reaction.
(§3) To examine whether antibodies to estrogen or progesterone are specific or cross-reactive, competition ELISA was performed by adding specific and non-specific antigens in liquid phase and examined prevention of serum antibody binding to the antigen in solid phase. […] This cross-reaction between estrogen and progesterone antibodies may be due to structural similarities between these two hormones.

[2] = test system: serum anti-estrogen IgE antibodies; assay: Competition ELISA: absorption of serum IgE anti-estrogen with specific and non-specific antigens; assay type: binding, human; details: for Absorption of serum IgE antibodies, in words: antigen added to the liquid phase; for Inhibition of IgE anti-estrogen binding, range over samples: antigen in liquid phase, summary of Table 3; for Percent inhibition after absorption (IgE) / Serum anti-estrogen IgE level after absorption: antigen 250 μg/mL; for Serum anti-estrogen IgE level after absorption: optical density at 405 nm
Protocol: as §1, §2, §3

[3] = serum sample 1, before absorption 1.83
[4] = serum sample 2, before absorption 1.25
[5] = serum sample 3, before absorption 0.76
[6] = serum sample 1, before absorption 2.15
[7] = serum sample 2, before absorption 1.66
[8] = serum sample 3, before absorption 1.34

With `CC(=O)[C@H]1CC[C@H]2[C@@H]3CCC4=CC(=O)CC[C@]4(C)[C@H]3CC[C@]12C` [progesterone] the “Visual acuity after treatment” value (macular degeneration; adult human female, sublingual, one application, baseline 20/200 in each eye) was 20/100 and 20/40 and the “Ophthalmologist's assessment” value (macular degeneration; return visit two weeks later, as reported by the patient) was “remarkably improved”.

With “En: Estrogen (estradiol) bound to bovine serum albumin, purchased from Sigma; specific antigen in competition ELISA” the “Absorption of serum IgG antibodies, in words” value [1] was “significantly absorbed”, the “Inhibition of anti-estrogen binding to estrogen (IgG), range over samples” value [1] was 52-67% and the “Percent inhibition after absorption (IgG)” value (“Percent inhibition … (IgG)” below) ([1]; serum sample 1) was “(67%)”. The “Serum anti-estrogen IgG level after absorption” value (“Serum anti-estrogen IgG level” below) [1, 3] was 0.61, the “Percent inhibition … (IgG)” value ([1]; serum sample 2) was “(59%)” and the “Serum anti-estrogen IgG level” value [1, 4] was 0.52. The “Percent inhibition … (IgG)” value ([1]; serum sample 3) was “(52%)”, the “Serum anti-estrogen IgG level” value [1, 5] was 0.37 and the “Absorption of serum IgE antibodies, in words” value [2] was “significantly absorbed”. For the same molecule, the “Inhibition of IgE anti-estrogen binding, range over samples” value [2] was 54-62%, the “Percent inhibition after absorption (IgE)” value (“Percent inhibition … (IgE)” for short) ([2]; serum sample 1) was “(55%)” and the “Serum anti-estrogen IgE level after absorption” value (“Serum anti-estrogen IgE level” for short) [2, 6] was 0.96. The “Percent inhibition … (IgE)” value ([2]; serum sample 2) was “(54%)”, the “Serum anti-estrogen IgE level” value [2, 7] was 0.77 and the “Percent inhibition … (IgE)” value ([2]; serum sample 3) was “(62%)”. The “Serum anti-estrogen IgE level” value [2, 8] was 0.51.

With “Pn: Progesterone bound to bovine serum albumin, purchased from Sigma; antigen in competition ELISA” the “Absorption of serum IgG antibodies, in words” value [1] was “significantly absorbed”, the “Inhibition of anti-estrogen binding to estrogen (IgG), range over samples” value [1] was 41-52% and the “Percent inhibition … (IgG)” value ([1]; serum sample 1) was “(52%)”. The “Serum anti-estrogen IgG level” value [1, 3] was 0.87, the “Percent inhibition … (IgG)” value ([1]; serum sample 2) was “(45%)” and the “Serum anti-estrogen IgG level” value [1, 4] was 0.69. The “Percent inhibition … (IgG)” value ([1]; serum sample 3) was “(41%)”, the “Serum anti-estrogen IgG level” value [1, 5] was 0.45 and the “Absorption of serum IgE antibodies, in words” value [2] was “significantly absorbed”. The “Inhibition of IgE anti-estrogen binding, range over samples” value [2] was 37-43%, the “Percent inhibition … (IgE)” value ([2]; serum sample 1) was “(37%)” and the “Serum anti-estrogen IgE level” value [2, 6] was 1.35. The “Serum anti-estrogen IgE level” value [2, 7] was 0.98, the “Percent inhibition … (IgE)” value ([2]; serum sample 3) was “(43%)” and the “Serum anti-estrogen IgE level” value [2, 8] was 0.76.

In the case of bovine serum albumin [BSA], the “Absorption of serum IgG antibodies, in words” value [1] is reported as “did not absorb”, the “Serum anti-estrogen IgG level” value [1, 3] is reported as 1.79 and the “Serum anti-estrogen IgG level” value [1, 4] is reported as 1.13. The “Serum anti-estrogen IgG level” value [1, 5] was 0.81, the “Absorption of serum IgE antibodies, in words” value [2] was “did not absorb” and the “Serum anti-estrogen IgE level” value [2, 6] was 2.24. For the same molecule, the “Serum anti-estrogen IgE level” value [2, 7] was 1.53 and the “Serum anti-estrogen IgE level” value [2, 8] was 1.26.

B1: myelin basic protein (protein, UniProt P02686 1-304, looked up)
Myelin basic protein: MGNHAGKRELNAEKASTNSETNRGESEKKRNLGELSRTTSEDNEVFGEADANQNNGTSSQDTAVTDSKRTADPKNAWQDAHPADPGSRPHLIRLFSRDAPGREDNTFKDRPSESDELQTIQEDSAATSESLDVMASQKRPSQRHGSKYLATASTMDHARHGFLPRHRDTGILDSIGRFFGGDRGAPKRGSGKDSHHPARTAHYGSLPQKSHGRTQDENPVVHFFKNIVTPRTPPPSQGKGRGLSLSRFSWGAEGQRPGFGYGGRASDYKSAHKGFKGVDAQGTLSKIFKLGGRDSRSGSPMARR
For B1, the “Absorption of serum IgG antibodies, in words” value [1] was “did not absorb”, the “Serum anti-estrogen IgG level” value [1, 3] was 1.67 and the “Serum anti-estrogen IgG level” value [1, 4] was 1.13. The “Serum anti-estrogen IgG level” value [1, 5] was 0.68, the “Absorption of serum IgE antibodies, in words” value [2] was “did not absorb” and the “Serum anti-estrogen IgE level” value [2, 6] was 2.05. The “Serum anti-estrogen IgE level” value [2, 7] was 1.73 and the “Serum anti-estrogen IgE level” value [2, 8] was 1.11.

Reference: patent publication US20050239757A1, “Hormone treatment of macular degeneration” (priority 2004, published 2005)
